The source of these data is patent US12703693B2, “Crystalline forms of N-{3-[(1S)-1-{[6-(3,4-dimethoxyphenyl)pyrazin-2-yl]amino}ethyl]phenyl}-5-methylpyridine-3-carboxamide and related products and methods” (GB002, INC., priority 2021, dated 2026).

Data set [1] can be described thus: Fragility and relaxation time (Tg vs heating rate by DSC). The format is physicochemical. The settings on record: 25° C.; calculated from fragility parameters (γ=0.9, τ0=10^−14 s). The protocol: Fragility and relaxation time parameters were determined by measuring Tg as a function of heating rate. Four heating rates were used: 1, 5, 10 and 20° C./min. DSC measurements were made by: • (1) heating at 10° C./min to 100° C.; • (2) isothermal hold for 5 min; • (3) cooling at 10° C./min to −20° C.; • (4) isothermal hold for 5 min; and • (5) heating at 10° C./min to 130° C.
The slope was used to calculate the activation enthalpy (ΔH*), from which the fragility parameters m, D and T0 were calculated, according to the following equations:
Using the fragility parameters, the initial structural relaxation time was calculated according to the following formula, (using γ=0.9 and τ0=10^−14 s) and determined to be 3 months at 25° C.

Data set [2] is described as follows: Solvent solubility of amorphous Compound 1 (solvent aliquot addition). Format: physicochemical. The settings on record: thermodynamic from solid. As to the method: Test solvent/solvent system (50 μL) was added to the vial and the mixture assessed for dissolution. If no dissolution was apparent, the mixture was heated to ca. 40° C. and reassessed; if dissolution was still incomplete, the cycle was repeated and an additional 50 μL of solvent added. After 300 μL of solvent had been added, 100 μL aliquots were added. This procedure was continued until complete dissolution was observed or until 1 mL of solvent had been added.

A short description of data set [3]: Solubility in 25 mM phosphate buffer pH 7.4.
Description: (§1) Phosphate Buffer contained NaH2PO4·H2O (0.345 g), sodium hydroxide aqueous solution (0.2M, 10.001 mL), sodium chloride (0.576 g) and water (qs ad 100.0 mL); • Ethanol/Water (30/70) contained Ethanol (30.0 g) and Water (70.0 g); • Ethanol/Water (40/60) contained Ethanol (40.0 g) and Water (60.0 g); • Ethanol/Water (50/50) contained Ethanol (50.0 g) and Water (50.0 g); and • Ethanol/Water (45/55) contained Ethanol (4.50 g) and Water (5.51 g).
A short description of data set [4]: Solubility in ethanol/water mixtures.
Description: as §1
Data set [5] in a line: Sample stress, 40° C. and 75% relative humidity, XRPD. The format is physicochemical. The settings on record: open vial, 6 days. The protocol: Two samples, one containing pure crystalline Form A of Compound 1 and a second containing a mixture of crystalline Forms A and B of Compound 1 were placed in an open vial at 40° C. and 75% relative humidity for 6 days and then analyzed by XRPD. The results are presented in Table 11; no changes by XRPD were observed.

Data set [6] is described as follows: Gravimetric Vapor Sorption (GVS). The settings on record: 25° C. The format is physicochemical. The protocol: Approximately 10-20 mg of crystalline Form A of Compound 1 was placed into a mesh vapor sorption balance pan and loaded into an IGASorp Moisture Sorption Analyzer balance by Hiden Analytical. The sample was subjected to a ramping profile from 40-90% relative humidity (RH) at 10% increments, maintaining the sample at each step until a stable weight had been achieved (98% step completion, minimum step length 30 minutes, maximum step length 60 minutes) at 25° C. After completion of the sorption cycle, the sample was dried using the same procedure to 0% RH, and finally taken back to the starting point of 40% RH. Two cycles were performed. The weight change during the sorption/desorption cycles were plotted, allowing for the hygroscopic nature of the sample to be determined.

Data set [7] in a line: Thermodynamic solubility in pH 3, 4.5, 6.8 buffers and deionized water. The settings on record: for pH (24 h): ~24 h agitation at ambient temperature.
A short description of a further data set: physchem. The settings on record: 22 °C, aqueous with cosolvent or surfactant or cyclodextrin, thermodynamic from solid.
Data set [8] in a line: Solubility in ethyl acetate and ethyl acetate+2% water (Crystal16 parallel crystallizer). The format is physicochemical. The settings on record: presence of water (2%). The protocol:
The solubility of crystalline Forms A and B of Compound 1 in ethyl acetate was determined using a Crystal16® parallel crystallizer. Two heating rates were used, 1° C./min and 0.5° C./min. The suspensions were heated to 78° C. and cooled to 10° C. at 0.2° C./min and maintained for 2 h at 10° C. […] The suspensions were heated to 78° C. at 1° C./min, cooled to 10° C. at 0.2° C./min and maintained for 2 h at 10° C. FIG. 15 compares the resulting solubility curve with the pure ethyl acetate.

Data set [9] in a line: Particle size distribution (PSD) of micronized / spray dried material. The format is physicochemical. The settings on record: Example 9 wet milling, 5% w/w in water, 45 cycles/P = 50 bar. From the text:
Crystalline Compound 1 Form A was fed into a grinding chamber tangentially by vacuum created by the venturi system using pressurized nitrogen (venturi pressure, Pvent, above grind pressure, Pgrind). Compressed nitrogen was also used for the jet nozzles in the walls of the chamber. The feed flow rate was set and controlled automatically (by a gravimetric feeder) or manually. Once inside the milling chamber particles were accelerated by a series of perimeter jets, in a spiral movement. The compressed fluid issuing from the nozzles expands from Pgrind and imparts very high rotational speeds in the chamber. The micronizing effect occurs when the slower incoming particles and the faster particles in the spiral path collide. While centrifugal force retains the larger particles at the periphery of the milling chamber, the smaller particles exit with the exhaust gas from the center of the chamber. Five 20 g trials were performed in a 1.5″ jet mill, under varying feed rates (Ffeed,JM,) and pressures; the optimal conditions were used for a sixth larger scale 50 g trial.
Aqueous suspensions of crystalline Compound 1 Form A in water (5% w/w or 10% w/w) were processed via microfluidization with a HPH18 (M-110EH-30 Microfluidics Pilot) wet milling apparatus equipped with an auxiliary processing module (200 μm) and an interaction chamber (Z-shape, 100 μm). The unit was initiated at a given pressure for the first five cycles to perform a pre-milling of the suspension, using only the auxiliary processing module (200 μm). The interaction chamber (100 μm) was then introduced and the suspension processed at a defined pressure. The temperature was controlled, using a reactor jacket, and recorded. To address clogging of the micronization chambers (observed after ~25 cycles), the pressure was increased from 25 to 60 bar.
The material isolated from the first run 1A, was dived into three (1BI, 1BII and 1BIII); runs 2A and 3A were spray dried to produce samples 2B and 3B, respectively. […] Runs 2B and 3B were additionally characterized for specific surface area (SSA). See Table 27 (runs 1BI, 1BII and 1BIII) and Table 28 (runs 2B and 3B) for conditions and product characterization. […]
Two 250 g batches of crystalline Compound 1 Form A were each suspended in water (5 L) and wet polished in a wet milling HPH18 (M-110EH-30 Microfluidics Pilot) apparatus, equipped with an auxiliary processing module (200 μm) and an interaction chamber (Z-shape, 100 μm). The unit was initiated at 50 bar for the first five cycles to perform a pre-milling of the suspension, using only the auxiliary processing module (200 μm). The interaction chamber (100 μm) was then introduced and the suspension processed at 50 bar (increased to 60 or 70 bar if the system clogged). The temperature was maintained at 18-28° C. using a reactor jacket. The Reactor agitation speed was 280 RPM (batch 1) and 390 RPM (batch 2). The first batch was micronized for 25 cycles and particle size distribution analyzed after 5, 15 and 20 cycles; the second batch was micronized for […] and particle size distribution analyzed after 15, 20, 25 and 35 cycles.
Both batches were then spray dried (separately) using a Büchi spray dryer, using an open loop system. The unit was equipped with a two-fluid nozzle: cap and orifice diameters of 1.5 and 0.7 mm, respectively operated with nitrogen. The aspirator, blowing nitrogen, was set at 100% capacity (~40 kg/h). The suspension feed flow was set to 8 ml/min, high and the drying outlet temperature to 75±1° C. […] Total yield (both batches combined) was 267 g (53%).
Two 250 g batches (250 g and 238 g; 488 g total) of crystalline Compound 1 Form A coated with ~2% L-leucine were each suspended in water (5 L) and wet polished in a wet milling HPH18 (M-110EH-30 Microfluidics Pilot) apparatus, under the same process as described in the previous example. The first batch was micronized for 25 cycles and the second for 30 cycles. […]

Data set [10] in a line: Physical stability, 1 week storage (HPLC purity, XRPD). The format is physicochemical. The protocol:
Two vials each were then stored for 1 week under various conditions of temperature and relative humidity.
XRPD analysis was performed to detect changes in crystallinity.

Setting [11] is: EtOH/H2O (w:w) 50:50, top layer after centrifugation, 22° C.

In brackets after ≈: the same amount, converted by molar mass. Marks after values point to notes of the source that are not given here.

Description for physchem: as §1

`COc1ccc(-c2cncc(N[C@@H](C)c3cccc(NC(=O)c4cncc(C)c4)c3)n2)cc1OC` [Amorphous Compound 1, N-{3-[(1S)-1-{[6-(3,4-dimethoxyphenyl)pyrazin-2-yl]amino}ethyl]phenyl}-5-methylpyridine-3-carboxamide]: the “initial structural relaxation time” value in data set [1] is recorded as 3 months. The solubility (in general, the concentration that dissolves in the medium under given conditions) was at least 200 mg/mL in data set [2] (2-propanol, organic solvent or mixture); at least 200 mg/mL in [2] (EtOAc/tBME (75:25% v/v), organic solvent or mixture); at least 200 mg/mL in data set [2] (acetone, organic solvent or mixture); at least 200 mg/mL in data set [2] (acetonitrile, organic solvent or mixture); at least 200 mg/mL in data set [2] (chloroform, organic solvent or mixture); at least 200 mg/mL in [2] (ethanol, organic solvent or mixture). Further, the solubility was at least 200 mg/mL in data set [2] (ethanol/water (95:5% v/v), organic solvent or mixture); at least 200 mg/mL in data set [2] (ethyl acetate, organic solvent or mixture); under 10 mg/mL in data set [2] (heptane, organic solvent or mixture); at least 200 mg/mL in data set [2] (methanol, organic solvent or mixture); at least 200 mg/mL in data set [2] (methyl ethyl ketone, organic solvent or mixture); about 12.5 mg/mL (≈ 26.6 mM) in data set [2] (organic solvent or mixture, EtOAc/tBME (25:75% v/v), sample heated to 40° C.). For the same compound, the solubility was about 100 mg/mL (≈ 213 mM) in data set [2] (organic solvent or mixture, EtOAc/tBME (50:50% v/v), sample heated to 40° C.); under 10 mg/mL in data set [2] (tert-butyl methyl ether, organic solvent or mixture); at least 200 mg/mL in data set [2] (tetrahydrofuran, organic solvent or mixture); under 10 mg/mL in data set [2] (toluene, organic solvent or mixture); under 10 mg/mL in data set [2] (water).
As to `COc1ccc(-c2cncc(N[C@@H](C)c3cccc(NC(=O)c4cncc(C)c4)c3)n2)cc1OC` [Crystalline], the solubility in [3] (25 mM phosphate buffer pH 7.4, equil time 4 hrs) came out at 0.00316 mg/mL (≈ 0.00673 mM); in data set [3] (25 mM phosphate buffer pH 7.4, equil time 24 hrs) it was 0.00305 mg/mL (≈ 0.0065 mM). In addition, the “Solubility 4 Hours” value in data set [4] (EtOH/H2O (w:w) 40:60, 22° C.) is 18.9 mg/mL (≈ 40.3 mM); in data set [4] (EtOH/H2O (w:w) 45:55, 22° C.), 53.3 mg/mL (≈ 114 mM); in data set [4] (EtOH/H2O (w:w) 50:50, bottom layer after centrifugation, 22° C.), 222 mg/mL (≈ 473 mM); in data set [4] (setting [11]), 125 mg/mL (≈ 266 mM). The “Solubility 24 Hours” value in data set [4] (EtOH/H2O (w:w) 40:60, 22° C.) was 18.3 mg/mL (≈ 39 mM); in data set [4] (EtOH/H2O (w:w) 45:55, 22° C.) it was 43.3 mg/mL (≈ 92.2 mM); in data set [4] (EtOH/H2O (w:w) 50:50, bottom layer after centrifugation, 22° C., result outside calibration curve) it was 362* mg/mL; in [4] (setting [11]), 177 mg/mL (≈ 377 mM). Further, the “Solubility Average” value in data set [4] (EtOH/H2O (w:w) 40:60, 22° C.) came to 18.6 mg/mL (≈ 39.6 mM); in [4] (EtOH/H2O (w:w) 45:55, 22° C.), 48.3 mg/mL (≈ 103 mM).
With `COc1ccc(-c2cncc(N[C@@H](C)c3cccc(NC(=O)c4cncc(C)c4)c3)n2)cc1OC` [Form A + form B (minor)], in [5], the “XRPD observation after stress conditions” value is recorded as “No change - Form A +”.
Take `COc1ccc(-c2cncc(N[C@@H](C)c3cccc(NC(=O)c4cncc(C)c4)c3)n2)cc1OC` [Form A, N-{3-[(1S)-1-{[6-(3,4-dimethoxyphenyl)pyrazin-2-yl]amino}ethyl]phenyl}-5-methylpyridine-3-carboxamide]: the “hygroscopic nature (GVS)” value in [6] (two sorption/desorption cycles) is recorded as “slightly hygroscopic”. Moreover, in [6] (up to 90% relative humidity), the GVS mass increase was about 0.7%. Besides, the “pH (Initial)” value in data set [7] (Water, after addition) worked out at 6.78; in data set [7] (pH 3 buffer, after buffer addition) it was 2.96; in data set [7] (pH 4.5 buffer, after buffer addition), 4.55; in data set [7] (pH 6.8 buffer, after buffer addition), 6.83. The “pH (24 h)” value in data set [7] (Water) stood at 6.73; in data set [7] (pH 3 buffer), 2.94; in [7] (pH 4.5 buffer), 4.55; in data set [7] (pH 6.8 buffer), 6.79. In addition, in data set [7] (all buffers (pH 3, 4.5, 6.8) and water, ambient temperature, ~24 h), the “Compound 1 concentration in filtered mother liquors (HPLC)” value is reported as under 0.05 mg/mL. Also, the solubility in the data set “physchem” was in the range of 2 to 350 mg/mL (≈ 4.26 to 745 mM). The “solubility in phosphate buffer” value in [3] (phosphate buffer, pH 7.4) is “moderate solubility”. Also, the “solubility in ethyl acetate+2% water compared to pure ethyl acetate” value in [8] is “significantly more soluble”. This compound came in with a Dv10 in data set [9] of 0.1 μm. In [9], this compound showed a Dv50 of 1.0 μm. Moreover, the Dv90 in data set [9] was 3.5 μm. The “Purity (HPLC)” value in [10] (1 week, 25° C./60% relative humidity (open vial)) is on record as about 99.1%; in data set [10] (1 week, 40° C./75% relative humidity (open vial)) it was about 99.1%; in [10] (1 week, 80° C. (closed vial)) it was about 99.0%; in data set [10] (1 week, Ambient light/temperature (closed vial)), about 98.9%; in data set [10] (Before storage), about 99.3%. In addition, the “crystalline form by XRPD after storage” value in data set [10] (one week, ambient, 25° C., 40° C., 80° C., relative humidity ambient, 60%, 75%) is “maintained”. Further, in [5], the “XRPD observation after stress conditions” value is reported as “No change - all Form A”.
